Experimental data as given in patent publication US8318787B2, “Prodrugs of (3,5-bis(4-fluorophenyl)tetrahydro-1H-oxazolo[3,4-C]oxazol-7A-yl)methanol and derivatives thereof” (University of Kansas, priority 2005, dated 2012).
One block for each compound: values may come before it.

Key:
[1] = Oral absorption of parent compound and prodrug (plasma levels); type: in vivo
Experimental: The prodrug compound (3,5-bis(4-fluorophenyl)tetrahydro-1H-oxazolo[3,4-C]oxazol-7a-yl)methanol phosphate was studied for oral absorption. A formulation of (3,5-bis(4-fluorophenyl)tetrahydro-1H-oxazolo[3,4-C]oxazol-7a-yl)methanol was prepared into a suspension and into a composition with Captisol, and the prodrug thereof was formulated into an aqueous solution. Oral absorption behavior of the parent compound is depicted in FIG. 8. As previously mentioned, the systemic exposure of the parent compound following oral administration of the parent compound as a suspension is limited compared to a solution of the parent compound administered in Captisol. The systemic exposure of the prodrug compound following oral administration of an aqueous solution of the prodrug compound is depicted in FIG. 9.

primary cortical neurons = test: Neuroprotection of primary cortical neurons exposed to Aβ peptides (Live/Dead assay); type: cell-based; conditions: Rattus norvegicus, Primary cortical neuron, Aβ25-35, 48 hours, read-out: EC50 (concentration that lead to a 50% increase in neuronal survival in the presence of the Aβ peptide)
Experimental: This example illustrates the neuroprotective effects of TH-237A in neuronal cells after exposure to Aβ peptides. To prepare the primary neurons, dissociated cortical cell cultures were established from embryonic day 18 rat fetuses recovered from pregnant Sprague Dawley rats (Harlan Sprague Dawley, Inc., Indianapolis, Ind.) as described previously (Michaelis et al., 1994). Pups were delivered by cesarean section while the dam was anesthetized with pentobarbital (140 mg/kg, i.p.), and the brains were recovered according to National Institutes of Health-approved protocols. After the final precipitation step, neurons were suspended in fresh DMEM/F12 (Sigma Chemical Co. St. Louis, Mo.) with 10% fetal bovine serum (Atlanta Biologicals, Atlanta, Ga.) and plated at a density of 2.5×10^5 cells in 35 mm glass bottom microwell dishes (Mat-Tek Co., Ashland, Mass.), coated with poly-D-lysine. Serum-containing medium was removed after 24 hours, and the cells were maintained in serum-free DMEM/F12 containing the N2 supplements. […]
After five days in culture, the primary neurons were exposed to either Aβ25-35 or Aβ1-42 in the presence or absence of concentrations of TH-237A ranging from 0.5 to 60 nM. […] Each batch of Aβ peptide was analyzed for β-sheet formation by circular dichroism, but no effort was made to separate oligomers from fibrils. […]
The effects of the Aβ peptides and TH-237A were primarily determined by monitoring neuronal cell survival using the Live/Dead assay as previously described (Michaelis et al., 1998; Michaelis et al., 2005). […] The number of viable (green) and dead (red) neurons was determined by counting the cells, and this was done in 6-12 microscopic fields per culture dish in duplicate dishes for each treatment. […] Thus, approximately 1500 neurons were scored under each treatment condition. The fraction of viable cells in each field was calculated based on the total number of cells counted in each field. Raw data from each experiment were combined and the significance of differences between cultures exposed to various treatments was determined using Student's t test. […]

in vitro = conditions: bovine, pH 7.4
Experimental: The BBMECs were grown on 0.4 μm polycarbonate membranes. […] Transport studies were performed in pH 7.4 standard buffer solutions, consisting of either Hank's balanced salt solution (HBSS) or phosphate buffered saline (PBS) supplemented with 0.63 mM CaCl2, 0.74 mM MgSO4, 5.3 mM glucose and 0.1 mM ascorbic acid (PBSA). Briefly, all studies were performed in 3 ml of PBSA in each donor and receiver chamber of the side-by-side diffusion chambers and stirred at 600 rpm at 37° C. The cells were allowed to equilibrate in PBSA for 30 minutes prior to each experiment and oriented such that apical or blood side of the cells face the donor chamber and the basolateral or brain side of the cells adhere to the polycarbonate membranes and face the receiver chamber of the diffusion apparatus. At each time point, a 100 μl sample was taken from the receiver compartment and immediately replaced with an equal volume of PBSA. The transport studies were performed in the presence or absence of CsA (5-10 μM). Monolayers were checked for trypan blue exclusion after experiments as well to assess general cell viability. The permeability of all monolayers used in these experiments was monitored for [^14C] sucrose leakage as a measure of potential TH-237A-induced loss of integrity. The radioactivity was quantified using liquid scintillation spectrometry.

[2] = In vivo pharmacokinetics in plasma and brain; design: species or system Male Balb/C mice; conditions: mice, 10 mg/Kg in Captisol, i.v. or s.c.
Experimental: In this example, the pharmacokinetics of TH-237A were evaluated in vivo. Male Balb/C mice were dosed with TH-237A (10 mg/Kg in Captisol®) via either an i.v. injection into the tail vein or via subcutaneous (sc) injection. At multiple time points ranging from 0 to 240 minutes, 12 mice (n=6, i.v.; n=6, s.c.) were anesthetized with isoflurane, and blood was collected via cardiac puncture. Mice were perfused with 30 mL of saline to wash remaining blood from the vessels, and the brain tissue was harvested. The levels of TH-237A in plasma and brain were quantified using mass spectrometric methods.
Sample preparations. Brain homogenate was prepared in a 1:4 ratio with deionized water. A sonic dismembrator was pulsed at 30% power until the sample was liquified. Aliquots of mouse plasma (0.05 mL) or mouse brain homogenates (0.25 g) were spiked with 50 ng of internal standard (deuterated TH-237A) and vortexed for 10 seconds. The TH-237A and internal standard were extracted using 1.3 mL of methyl t-butyl ether. Samples were vortexed for 5 minutes and centrifuged. The supernatant was transferred to 2 mL centrifuge tubes and evaporated to dryness. The sample was reconstituted in 0.2 mL of sample solvent, vortexed and centrifuged before a 10 uL aliquot was injected on to the LC/MS system for analysis.
Analysis of TH-237A. The levels of the drug in the samples were determined by means of HPLC/MS. […]

[3] = test system: P-glycoprotein efflux transporter; test: Rhodamine 123 accumulation assay in bovine brain microvessel endothelial cells; type: in vitro ADME; conditions: BBMECs
Experimental: First, a rhodamine 123 assay was used for to assess uptake of the test compound in brain endothelial cells. Bovine brain microvessel endothelial cells (“BBMECs”) were isolated and grown in primary culture on 12 well cluster dishes at a density of 50,000 cells/cm^2 essentially as described previously (Rice et al., 2005). The culture medium was changed every other day after seeding until a confluent monolayer was formed as determined by light microscopy. Experiments were performed in phosphate buffered saline supplemented with calcium and glucose (PBSA), pH 7.4. Briefly, the growth medium was first aspirated off, and the cells were rinsed three times with pre-warmed (37° C.) PBSA. […] Cell lysates were assayed using a microplate fluorescence reader (Bio-Tek Instruments, Winooski, Vt.) at excitation/emission wavelengths of 485 nm/520 nm, then quantified against standard curves of rhodamine 123 in lysing solution. The fluorescence of the cell lysates was corrected for autofluorescence of untreated cells. The protein content of each monolayer was then determined using the BCA protein assay reagent kit. Results were expressed as total nanomoles of rhodamine 123 accumulation per mg cellular protein for agents tested at 10 μM.

systemic exposure after oral administration as a suspension compared to solution in Captisol ([1]; suspension): limited
SMILES: OCC12COC(c3ccc(F)cc3)N1C(c1ccc(F)cc1)OC2 (stereo not shown) [(3,5-bis(4-fluorophenyl)tetrahydro-1H-oxazolo[3,4-C]oxazol-7a-yl)methanol]

melting point: 102 °C
SMILES: OC[C@]12CO[C@H](c3ccc(C(F)(F)F)cc3)N1[C@H](c1ccc(C(F)(F)F)cc1)OC2 [TH-242A]

systemic exposure of drug from aqueous prodrug solution relative to Captisol solution of the parent compound ([1]; aqueous solution of prodrug): equivalent or better
SMILES: O=P([O-])([O-])OCC12COC(c3ccc(F)cc3)N1C(c1ccc(F)cc1)OC2.[Na+].[Na+] (stereo not shown) [(3,5-bis(4-fluorophenyl)tetrahydro-1H-oxazolo[3,4-C]oxazol-7a-yl)methanol phosphate]

Papp (in vitro): 270 ×10⁻⁶ cm/s
plasma half-life [2]: on the order of hours
SMILES: OC[C@]12CO[C@H](c3ccc(F)cc3)N1[C@H](c1ccc(F)cc1)OC2 [TH-237A, (3R,5S,7as)-(3,5-bis(4-fluorophenyl)tetrahydro-1H-oxazolo[3,4-c]oxazol-7a-yl)methanol]
amount of drug entering the plasma ([2]; regardless of route): a very significant amount of the drug enters the plasma
EC50 (primary cortical neurons): 5 nM
effect on rhodamine 123 accumulation / P-glycoprotein substrate [3]: not a substrate for the P-glycoprotein efflux transporter

Further lines, the compound ahead of its results:

SMILES: OCC12CO[C@H](c3ccc(F)cc3)N1[C@@H](c1ccc(F)cc1)OC2 (racemic) [TH-236B, (3R,5R) and (3S,5S) (3,5-bis(4-fluorophenyl)tetrahydro-1H-oxazolo[3,4-c]oxazol-7a-yl)methanol]
EC50 (primary cortical neurons): ~40 nM

SMILES: OCC1(CO)COC(c2ccc(F)cc2)N1 (racemic) [TH-OPEN, (R/S)-(2-(4-fluorophenyl)oxazolidine-4,4-diyl)dimethanol]
EC50 (primary cortical neurons): ~50 nM
melting point: 89 °C

SMILES: OCC1(CO)COC(c2ccc(C(F)(F)F)cc2)N1 (racemic) [TH-OPENTFM, (R/S)-(2-(4-(trifluoromethyl)phenyl)oxazolidine-4,4-diyl)dimethanol]
melting point: 98 °C

SMILES: OCC12CO[C@H](c3ccc(C(F)(F)F)cc3)N1[C@@H](c1ccc(C(F)(F)F)cc1)OC2 (racemic) [TH-242B, (3R,5R) and (3S,5S) (3,5-bis(4-trifluoromethylphenyl)tetrahydro-1H-oxazolo[3,4-c]oxazol-7a-yl)methanol]
melting point: 120 °C
